This note sets out measurements from patent US20080139534A1, “Bisbenzamidines and bisbenzamidoximes for the treatment of human African trypanosomiasis” (XAVIER UNIVERSITY OF LOUISIANA, priority 2006, published 2008).

Assay [1] concerns calf thymus DNA. Nature of the assay: Thermal denaturation study, DNA binding affinity (ΔTm). The conditions noted are these: 1:5 compound to base pair ratio.
Experimental: (§1) The binding affinity was measured by determining the change in the midpoint (Tm) of the thermal denaturation curves of calf thymus DNA as well as poly(dA-dT) at a 1:5 compound to base pair ratio.
The test system of assay [2] is T. b. brucei Lab 110 EATRO. Briefly: In vitro trypanocidal activity, bloodforms in HMI-18 medium, Coulter counts. It counts as cell-based, Trypanosoma brucei brucei. The conditions noted are these: Trypanosoma brucei; 48 h exposure, bloodforms; read-out: Lab 100 EATRO IC50.
Assay [3] deals with poly(dA-dT). Nature of the assay: Thermal denaturation study, DNA binding affinity (ΔTm). The conditions noted are these: 1:5 compound to base pair ratio.
Experimental: as §1
In assay [4] the test system is T. b. rhodesiense KETRI 243. Briefly: In vitro trypanocidal activity, bloodforms in HMI-18 medium, Coulter counts. It counts as cell-based, Trypanosoma brucei rhodesiense. The conditions noted are these: Trypanosoma brucei, RHODESIENSE, 48 h exposure.
Experimental: The compounds were tested against trypanosome isolates grown as blood forms in HMI-18 medium containing 20% horse serum in 24 well microplates at 37° C. in 5% CO2. Wells were inoculated with 1×10^5 trypanosomes. […] One-half the volume was replaced daily. Cell counts were made daily with a Coulter Counter, Model Z1 (Beckman Coulter, Miami, Fla., USA). Cells were diluted with Isoton I buffer (Beckman Coulter) and the aperture was standardized at 5.14 μm. Background checks were performed daily on 1:10 dilutions of medium. Counts, normalization, and coincident counts were accounted for by the standardized Coulter analysis program. Occasionally, hemocytometer counts were performed as a check on the validity of the Coulter program. IC50 values were determined after 48 h from semi-log plots and the values are the result of duplicate determinations. Initially a broad concentration curve was used and then a close concentration curve from which IC50 values were determined. Assays were done in duplicate and each point was the average of the two. Control cells grew to 5×10^6/ml.
Coulter counts were made daily and IC50 values determined after 48 hours exposure.
The subject of assay [5] is T. b. rhodesiense KETRI 2538. Briefly: In vivo efficacy in infected mice, clinical isolate. The arrangement: species or system Trypanosoma brucei rhodesiense.
Experimental: (§2) Female Swiss-Webster mice (weight, 20 g) were infected (intraperitoneally) with 2.5×10^5 trypanosomes from rat blood, and the infection was allowed to develop for 24 h before drug treatment was begun. Groups of three mice each were injected (intraperitoneally) with each drug concentration. All of the experiments included a group of untreated controls. […] Animals were monitored weekly for parasites in tail vein blood smears. Mice were considered cured if they survived more than 30 days after the death of the last control with no parasites in tail vein blood smears. MSD (mean survival in days) was also recorded for each group. It is the average time of survival of the animals in the group, exclusive of cured animals.
(§3) Mice were infected on day 1 with 2.5×10^5 trypanosomes and the infections allowed to progress 24 h. prior to dosing. Animals were dosed 1×/day i.p for 3 days. Cured animals survived >30 days beyond the death of untreated, infected controls. MSD=mean survival in days exclusive of cured animals. Dose as mg/kg/day.
In assay [6] the test system is T. b. rhodesiense KETRI 2002. Described as above. The arrangement: species or system Trypanosoma brucei rhodesiense.
Experimental: as §2, §3
For assay [7], the system named is T. b. rhodesiense KETRI 1992. The description is as above. Set-up: species or system Trypanosoma brucei rhodesiense.
Experimental: as §2, §3
For assay [8], the system named is T. b. brucei Lab 110 EATRO. Briefly: In vivo efficacy in infected mice. The arrangement: species or system Trypanosoma brucei brucei. The conditions noted are these: mice.
Setting [9] is: KETRI 1992, 5 mg/kg/day i.p. for 3 days.
Setting [10] is: KETRI 1992, 10 mg/kg/day i.p. for 3 days.
Setting [11] is: KETRI 1992, 15 mg/kg/day i.p. for 3 days.
[12] abbreviates: 25 mg/kg i.p., single dose (1x).
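Throughout, for DNA Binding Δ Tm Calf thymus: shift in midpoint melting temperature of calf thymus DNA thermal denaturation curves caused by compound binding, values averaged over at least two determinations.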
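Throughout, for DNA Binding Δ Tm Poly (dA-dT): shift in the midpoint temperature of the thermal melting curve of poly(dA-dT), each value the mean of two or more independent determinations.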

As to `N=C(N)c1ccc(NC(=O)CCCCC(=O)Nc2ccc(C(=N)N)cc2)cc1` [compound 0702], the “DNA Binding Δ Tm Calf thymus” value in assay [1] is 8.7 °C. For the same compound, the IC50 is 2.8 nM in assay [2] and 2.45 nM in assay [4]. Also, the “DNA Binding Δ Tm Poly (dA-dT)” value in assay [3] is 14.4 °C. Also, the MSD is over 30 days in assay [5] (KETRI 2538, 5 mg/kg/day i.p. for 3 days); over 30 days in assay [5] (KETRI 2538, 10 mg/kg/day i.p. for 3 days); over 30 days in assay [5] (KETRI 2538, 15 mg/kg/day i.p. for 3 days); over 30 days in assay [6] (KETRI 2002, 10 mg/kg/day i.p. for 3 days); over 30 days in assay [6] (KETRI 2002, 15 mg/kg/day i.p. for 3 days); over 30 days in assay [6] (KETRI 2002, 25 mg/kg/day i.p. for 3 days). Moreover, the MSD was 16.5 days in assay [7] (setting [9]); 17.5 days in assay [7] (setting [10]); 22 days in assay [7] (setting [11]); 6.7 days in assay [8] (1 mg/kg/day i.p. for 3 days); over 30 days in assay [8] (5 mg/kg/day i.p. for 3 days); over 30 days in assay [8] (10 mg/kg/day i.p. for 3 days). Further, the MSD in assay [8] (15 mg/kg/day i.p. for 3 days) is over 30 days; in assay [8] (setting [12]), 22 days; in assay [8] (25 mg/kg/day i.p., 2 doses (2x)), over 30 days. The “#Cured/Total” value in assay [7] (setting [9]), in assay [7] (setting [10]) and in assay [7] (setting [11]) was 0/3 in each case. The “# Cured/#Treated (%)” value in assay [8] (1 mg/kg/day i.p. for 3 days) and in assay [8] (setting [12]) was 0/3 in each case.
